Consider seven compounds from US20150089682A1, “ALS Inhibitor Herbicide Tolerant B. Napus Mutants” (priority 2012, published 2015).

Assay [1] concerns spring oilseed rape variety ABILITY. Put plainly: Herbicide tolerance in the field, visible phytotoxicity. It counts as in vivo, Brassica napus. The settings on record: ABILITY, field, 18 days after application, 0%=no phytotoxic effects, 100%=all plants killed. An excerpt: (§1) Seeds of spring oilseed rape homozygous for HETO108 and HETO121 were sown in a field according to typical practical agricultural methods. The registered spring oilseed rape variety ABILITY served as a comparison. All plants were cultivated up to BBCH stage 14 (four true leaves of the oilseed rape plants). Afterwards, the herbicides mentioned in table 2 have been applied to the oilseed rape plants by using specific spray equipment for small plot applications. The water amount used was 200 L/ha.

The test system of assay [2] is spring oilseed rape homozygous for HETO108 and HETO121. The assay is described as above. It counts as in vivo, Brassica napus. The settings on record: HETO108-HETO121, field, 18 days after application, 0%=no phytotoxic effects, 100%=all plants killed.
Description: as §1

Assay [3] has as its target T1, Arabidopsis thaliana S653N-mutant ALS (Arabidopsis thaliana, UniProt P17597, E575Q/S653N).
T1 construct: vector-encoded N-terminal fusion of pET-32a(+) (Trx/His/S tag by own knowledge); made in house; host or cells: Escherichia coli AD494
The experiment in a line: biochemical. Particulars: for IC50: read-out: pI50 S653N (converted); for Resistance Factor S653N: relative to WT, from measured pI50. How it is done:
(§2) Bacteria were grown at 37° C. in LB-medium containing 100 mg/1 carbenicillin and 25 mg/1 canamycin, induced with 1 mM isopropyl-β-D-thiogalactopyranoside at an OD600 of 0.6, cultivated for 16 hours at 18° C. and harvested by centrifugation. Bacterial pellets were resusupended in 100 mM sodium phosphate buffer pH 7.0 containing 0.1 mM thiamine-pyrophosphate, 1 mM MgCl2, and 1 μM FAD at a concentration of 1 gram wet weight per 25 ml of buffer and disrupted by sonification. The crude protein extract obtained after centrifugation was used for ALS activity measurements.
(§3) Assays were initiated by adding enzyme and terminated after 75 min incubation at 30° C. by the addition to 40 μl 0.5 M H2SO4. […] Reaction velocities were tiffed to the Michalis-Menten equation with the XLFit curve fitting program.

Assay [4] has as its target T2, Arabidopsis thaliana wild-type ALS (Arabidopsis thaliana, UniProt P17597, E575Q).
T2 construct: vector-encoded N-terminal fusion of pET-32a(+) (Trx/His/S tag by own knowledge); made in house; host or cells: Escherichia coli AD494
The experiment in a line: biochemical. Particulars: measured, crude extract of E. coli expressed enzyme; for IC50: read-out: pI50 WT (converted). How it is done: as §2, §3

Assay [5] deals with T3, Arabidopsis thaliana P197S-mutant ALS (Arabidopsis thaliana, UniProt P17597, E575Q/P197S).
T3 construct: vector-encoded N-terminal fusion of pET-32a(+) (Trx/His/S tag by own knowledge); made in house; host or cells: Escherichia coli AD494
Put plainly: biochemical. Particulars: for IC50: read-out: pI50 P197S (converted); for Resistance Factor P197S: relative to WT, from measured pI50. The procedure:
as §2, §3

Assay [6] has as its target T4, Arabidopsis thaliana W574L-mutant ALS (Arabidopsis thaliana, UniProt P17597, E575Q/W574L).
T4 construct: vector-encoded N-terminal fusion of pET-32a(+) (Trx/His/S tag by own knowledge); made in house; host or cells: Escherichia coli AD494
Put plainly: biochemical. The settings on record: for IC50: read-out: pI50 W574L (converted); for Resistance Factor W574L: relative to WT, from measured pI50. How it is done: as §2, §3

Assay [7] addresses T5, mixture of S653N and W574L ALS enzymes (Arabidopsis thaliana, UniProt P17597).
T5 construct: crude E. coli extract was used
It counts as biochemical. Particulars: for pI50 S653N & W574L: calculated for a mixture of equal activities of the two enzymes, pI50=3.0 used where measured <4; for Resistance Factor S653N & W574L: relative to WT, calculated. How it is done:
as §3
(§4) To characterize the response of a mixture of two different ALS enzymes to a given ALS inhibitor the following assumptions were made: • a inhibition is competitive and reversible • b. in the absence of inhibitor, equal activities of the ALS (mutant) enzymes 1 and 2 are present
(§5) Using experimentally determined pI50-values for various ALS-inhibiting herbicides, enzyme activities at different inhibitor concentrations were calculated (see Theory) for each ALS enzyme. Total ALS activity at any given inhibitor concentration is the sum of the activity of (mutant) enzyme 1 and (mutant) enzyme 2. If the experimentally determined pI50-value was <4, pI50=3.0 was used for the calculations. If the calculated pI50-value was 3.0, the pI50 was redefined as <4.

In assay [8] the target is T6, mixture of P197S and W574L ALS enzymes (Arabidopsis thaliana, UniProt P17597).
T6 construct: crude E. coli extract was used
In kind it is biochemical. The settings on record: for pI50 P197S & W574L: calculated for a mixture of equal activities of the two enzymes, pI50=3.0 used where measured <4; for Resistance Factor P197S & W574L: relative to WT, calculated. The procedure: as §3, §4, §5

Where [9] appears, read: Brassica napus, topical, 432 h, AI dose rate 30 gai/ha, read-out: % phytotox.
Where [10] appears, read: measured, crude extract of E. coli expressed enzyme.
Setting [11] is: Brassica napus, topical, 432 h, AI dose rate 50 gai/ha, read-out: % phytotox.
The mark [12] stands for this setting: Brassica napus, topical, 432 h, AI dose rate 60 gai/ha, read-out: % phytotox.
Setting [13] is: Brassica napus, topical, 432 h, AI dose rate 12.5 gai/ha, read-out: % phytotox.
[14] abbreviates: Brassica napus, topical, 432 h, AI dose rate 10 gai/ha, read-out: % phytotox.
Where [15] appears, read: Brassica napus, topical, 432 h, AI dose rate 5 gai/ha, read-out: % phytotox.

Where only a bound is given, the exact number is not on record here.

Regarding `COc1cc(OC)n2nc(S(=O)(=O)Nc3c(Cl)ccc(C)c3Cl)nc2n1` [Metosulam, metosulam], the results for the pest or weed control at 30 g/ha in assay [1] (setting [9]) and in assay [2] (setting [9]) were 100% and 35%, respectively. Moreover, the IC50 in assay [3] (setting [10]) is 6.31 nM; in assay [4], 2.51 nM; in assay [5] (setting [10]) it was 1580 nM; in assay [6] (setting [10]), 20000 nM. For the same compound, the “Resistance Factor S653N” value in assay [3] came to 3. Besides, the “Resistance Factor P197S” value in assay [5] is listed as 631. For the same compound, the “Resistance Factor W574L” value in assay [6] came to 7943. In addition, the “pI50 S653N & W574L” value in assay [7] is 6.4. Besides, in assay [7], the “Resistance Factor S653N & W574L” value was 158. Moreover, the “pI50 P197S & W574L” value in assay [8] is listed as 5.2. Also, the “Resistance Factor P197S & W574L” value in assay [8] is 2512.
`COc1cc(OC)n2nc(NS(=O)(=O)c3c(C(F)(F)F)ccnc3OC)nc2n1` [Pyroxsulam, pyroxsulam]: in assay [1] (AI dose rate 50 gai/ha), the “% phytotox” value was 99%. The “% phytotox” value in assay [2] (AI dose rate 50 gai/ha) amounted to 0%. In addition, the “pI50 S653N” value in assay [3] (setting [10]) was 6.8. The “Resistance Factor S653N” value in assay [3] stood at 63. Moreover, the “pI50 WT” value in assay [4] came to 8.6. Besides, the “pI50 P197S” value in assay [5] (setting [10]) turned out to be 6.2. The “Resistance Factor P197S” value in assay [5] worked out at 251. In addition, the “pI50 W574L” value in assay [6] (setting [10]) is given as less than 4. Besides, the “Resistance Factor W574L” value in assay [6] is given as greater than 39810. Further, in assay [7], the “pI50 S653N & W574L” value is 5.3 and the “Resistance Factor S653N & W574L” value is given as 1995. In addition, in assay [8], the “pI50 P197S & W574L” value was 4.8 and the “Resistance Factor P197S & W574L” value is 6310.
As to `COc1cc(OC)nc(NC(=O)NS(=O)(=O)c2ncccc2C(F)(F)F)n1` [Flazasulfuron, flazasulfuron], the figures for the pest or weed control at 50 g/ha in assay [1] (setting [11]) and in assay [2] (setting [11]) were 100% and 80%, respectively. In addition, the IC50 in assay [3] (setting [10]) was 0.316 nM; in assay [4], 0.794 nM; in assay [5] (setting [10]) it was 100 nM; in assay [6] (setting [10]), 3160 nM. The “Resistance Factor S653N” value in assay [3] is 0. Besides, in assay [5], the “Resistance Factor P197S” value turned out to be 126. Further, in assay [6], the “Resistance Factor W574L” value is 3981. The “pI50 S653N & W574L” value in assay [7] is 7.5. Further, the “Resistance Factor S653N & W574L” value in assay [7] is 40. The “pI50 P197S & W574L” value in assay [8] is 6.2. The “Resistance Factor P197S & W574L” value in assay [8] is given as 794.
Consider `COc1cc(OC)nc(NC(=O)NS(=O)(=O)c2ncccc2C(=O)N(C)C)n1` [Nicosulfuron, nicosulfuron], for which the pest or weed control at 60 g/ha in assay [1] (setting [12]) came to 100%; in assay [2] (setting [12]) it was 55%. For the same compound, the IC50 in assay [3] (setting [10]) was 2510 nM; in assay [4], 126 nM; in assay [5] (setting [10]), 1000 nM; in assay [6] (setting [10]), greater than 100000 nM. The “Resistance Factor S653N” value in assay [3] came out at 20. Besides, the “Resistance Factor P197S” value in assay [5] is reported as 8. The “Resistance Factor W574L” value in assay [6] is listed as greater than 794. The “pI50 S653N & W574L” value in assay [7] was 4.3. Besides, in assay [7], the “Resistance Factor S653N & W574L” value is reported as 398. Also, the “pI50 P197S & W574L” value in assay [8] was 4.5. In assay [8], the “Resistance Factor P197S & W574L” value was 251.
On to `CCS(=O)(=O)c1cccnc1S(=O)(=O)NC(=O)Nc1nc(OC)cc(OC)n1` [Rimsulfuron, rimsulfuron], for which the pest or weed control at 12.5 g/ha in assay [1] (setting [13]) is 100%; in assay [2] (setting [13]), 68%. For the same compound, the IC50 is 20 nM in assay [3] (setting [10]), 31.6 nM in assay [4], 398 nM in assay [5] (setting [10]) and 10000 nM in assay [6] (setting [10]). The “Resistance Factor S653N” value in assay [3] was found to be 1. For the same compound, the “Resistance Factor P197S” value in assay [5] was 13. Further, the “Resistance Factor W574L” value in assay [6] is 316. Moreover, the “pI50 S653N & W574L” value in assay [7] is 6.3. The “Resistance Factor S653N & W574L” value in assay [7] is reported as 16. In assay [8], the “pI50 P197S & W574L” value is 5.7. The “Resistance Factor P197S & W574L” value in assay [8] is given as 63.
With `CCS(=O)(=O)c1nc2ccccn2c1S(=O)(=O)NC(=O)Nc1nc(OC)cc(OC)n1` [Sulfosulfuron, sulfosulfuron], the pest or weed control at 10 g/ha in assay [1] (setting [14]) is 100%; in assay [2] (setting [14]) it was 3%. Besides, the IC50 is 126 nM in assay [3] (setting [10]), 25.1 nM in assay [4], 39800 nM in assay [5] (setting [10]) and greater than 100000 nM in assay [6] (setting [10]). Moreover, in assay [3], the “Resistance Factor S653N” value came out at 5. For the same compound, the “Resistance Factor P197S” value in assay [5] turned out to be 1585. The “Resistance Factor W574L” value in assay [6] is reported as greater than 3981. Further, in assay [7], the “pI50 S653N & W574L” value is given as 5.4. The “Resistance Factor S653N & W574L” value in assay [7] is listed as 158. Also, the “pI50 P197S & W574L” value in assay [8] was 3.6. Also, in assay [8], the “Resistance Factor P197S & W574L” value is given as 10000.
As to `COC(=O)c1sccc1S(=O)(=O)NC(=O)Nc1nc(C)nc(OC)n1` [Thifensulfuron-Methyl, thifensulfuron-methyl], the pest or weed control at 5 g/ha in assay [1] (setting [15]) stood at 85%; in assay [2] (setting [15]) it was 0%. Besides, the IC50 in assay [3] (setting [10]) is 200 nM; in assay [4] it was 39.8 nM; in assay [5] (setting [10]) it was 7940 nM; in assay [6] (setting [10]), 63100 nM. Further, the “Resistance Factor S653N” value in assay [3] is on record as 5. The “Resistance Factor P197S” value in assay [5] stood at 200. Also, the “Resistance Factor W574L” value in assay [6] came out at 1585. The “pI50 S653N & W574L” value in assay [7] is reported as 5.4. Besides, in assay [7], the “Resistance Factor S653N & W574L” value is listed as 100. In addition, the “pI50 P197S & W574L” value in assay [8] is 4.6. Further, the “Resistance Factor P197S & W574L” value in assay [8] was 631.
